The values that follow are results of earlier work, collected in patent publication US20240016743A1, “A METHOD FOR PRODUCING ENTACAPONE TABLETS” (CHINA MEHECO KANGLI PHARMA CO., LTD, priority 2021, published 2024).

For this data set the following is noted: clinical trials.

Structures are written as SMILES.

In the case of `N[C@@H](Cc1ccc(O)c(O)c1)C(=O)O` [levodopa], the “prolong the "On" time” value is given as 16% and the “shorten the "Off" time” value is on record as 24%.
